From patent US20210121418A1, “TREATMENT OF PROTEINURIA” (SYNACT PHARMA APS, priority 2018, published 2021)

Tests used:
[1] = tested on: Passive Heymann Nephritis; assay: Passive Heymann Nephritis, experiment 2 (oral gavage vs ACTH(1-24)); format: in vivo, rat; details: 4 weeks treatment
Method: Passive Heymann Nephritis was introduced to Male Sprague-Dawley rats by administration of anti-Fx1A serum (PTX-002S, Probetex, San Antonio, Tex., USA) Probetex, lot 169-6H) on study day 0 (1 ml serum) and on study day 7 (0.25 serum) into the jugular vein by slow injection during isoflurane anaesthesia. […] In another experiment (experiment 2) test compound 1 was given once daily by oral gavage. […] In this experiment treatment effect of test compound 1 was compared to the effect of ACTH(1-24) as ACTH from the literature has been described to have treatment effects on proteinuria in the applied experimental model. […] Likewise, the urine concentration of creatinine and albumin were determined and so was the volume of the 24-hours urine production. The blood sample was taken from the abdominal vein during pentobarbital (0.2-0.3 mL/rat ip; Dolethal, Vetoquinol via […], France). The collected blood was transferred into tubes coated with EDTA and centrifuged (10 minutes, 1000 g, 4° C.) for plasma collection. Plasma samples were stored at -80° C. until quantification of creatinine and Albumin. […] Statistical analyses were made by standard unpaired t-test, with p<0.05 considered statistical significant

[2] = Phase I Part I, single ascending dose, oral suspension (PK and safety)
clinical [3] = details: human, plasma, oral, 200 mg
[4] = Phase I Part IV, 14-day repeated dose, oral suspension (PK and safety); details: for C Max (mean +/− SD, N = 9) / C Trough (Mean +/− SD, N = 9): steady conditions
clinical [5] = details: male, human, plasma
MC3R = details: cited from earlier work
[6] = tested on: Passive Heymann Nephritis; assay: Passive Heymann Nephritis, experiment 1 (ip dosing); format: in vivo, rat; details: for FEAlb (fractional albumin excretion) reduced by: 10 mg/kg ip once daily; for proteinuria compared to control rats (vehicle): day 28 and day 42
Method: Passive Heymann Nephritis was introduced to Male Sprague-Dawley rats by administration of anti-Fx1A serum (PTX-002S, Probetex, San Antonio, Tex., USA) Probetex, lot 169-6H) on study day 0 (1 ml serum) and on study day 7 (0.25 serum) into the jugular vein by slow injection during isoflurane anaesthesia. […] Pharmacological intervention with control compound or test compound was initiated on day 14.
In one experiment (experiment 1) test compound 1 dissolved in isotonic saline was given once daily by intraperitoneal (ip) injections at a dose of 10 mg/kg (n=12) with animals treated with isotonic saline injections as controls (n=12).
In experiment 1 twenty-four hours urine collection were performed at three occasions, at day 14 following induction of nephritis, i.e. at the time point where pharmacological intervention was initiated, at day 28 and at day 42 following induction of nephritis. For urine collection the rats were placed in metabolic cages followed by a blood sample for measurement of plasma concentrations of creatinine and albumin. Likewise, the urine concentration of creatinine and albumin were determined and so was the volume of the 24-hours urine production.
The blood sample was taken from the abdominal vein during pentobarbital (0.2-0.3 mL/rat ip; Dolethal, Vetoquinol via Centravet, Lapalisse, France). The collected blood was transferred into tubes coated with EDTA and centrifuged (10 minutes, 1000 g, 4° C.) for plasma collection. Plasma samples were stored at −80° C. until quantification of creatinine and Albumin.
Albumin and creatinine in urine and plasma were quantified using a ABX Pentra 400 Clinical Chemistry analyzer (HORIBA).
Albumin excretion rate was determined as follows:
24 hours urine production×concentration of Albumin in urine.
Fractional Albumin excretion was determined as follows:
((Urine concentration of […]×24 hours urine production)/plasma concentration of albumin)/Creatinine Clearance×100
All data presented as mean±Standard error of mean (SE). Statistical analyses were made by standard unpaired t-test, with p<0.05 considered statistical significant

melanocytes = details: cited from earlier work
[7] = tested on: experimental inflammatory arthritis; details: in vivo; cited from earlier work
[8] = Effect of meal timing and apple juice on absorption of the suspension; format: in vivo
Method: The effect of food intake on the absorption of AP1189 in the current suspension formulation has not been systematically evaluated. However, it has been shown that the plasma profile of the compound, whether the first meal was served 1 hour or 4 hours post-dosing in the fasting state, is very similar.

CYP1A2 = CYP1A2 induction in human hepatocyte; format: in vitro ADME; details: 10 μM
MC1R = details: cited from earlier work
peritonitis = details: oral; cited from earlier work
macrophages = details: cited from earlier work

NC(N)=N/N=C/C=C/c1cccn1-c1ccccc1[N+](=O)[O-] [AP1189, (E)-N-trans-{3-[1-(2-nitrophenyl)-1H-pyrrol-2-yl]-allylidene}-aminoguanidium acetate]
GFR (creatinine clearance) ([1]; 20 mg/kg oral gavage): 3.12 ± 0.14 mL/min | fraction albumin excretion (FEAlb) ([1]; 20 mg/kg oral gavage): 0.045±0.04% | fraction albumin excretion (FEAlb) ([1]; 40 mg/kg oral gavage): 0.35±0.05% | Cmax and AUCs, female compared to male subjects ([2]; 400 mg): slightly increased | apparent volume of distribution, female compared to male ([2]; 400 mg): similar | exposure at maximum administrated dose above expected therapeutic exposure level ([2]; 800 mg): more than 10 × | increase of ALT above the normal upper value ([2]; 400-800 mg): up to 1.6 | TEAEs considered related to the study treatment ([2]; after administration of 200 to 800 mg): 21 events | apparent clearance ([2]; female subjects, 400 mg): 17.26 L/h | QTcF and other cardiac parameters, 24-hours Holter ECG ([2]; in vivo): No AP1189 associated increases in QTcF | changes in vital signs ([2]; in vivo): No treatment-related changes in vital signs | frequency of related gastrointestinal TEAEs vs dose ([2]; in vivo): increased with the dose | subjects with isolated increases in aminotransferases ([2]; male subjects on active IMP, 400, 600, 800 mg): 4 subjects | inter-individual variability for Cmax and AUCs ([2]; male subjects, 50-800 mg): < 36% | severe or serious adverse events ([2]; single doses 15-800 mg): No severe AEs nor serious AEs were reported | Cmax (clinical [3]): ≤ 900 ng/mL | C Max (mean +/− SD, N = 9) ([4]; 50 mg once daily): 180 ± 38 ng/mL | C Trough (Mean +/− SD, N = 9) ([4]; 50 mg once daily): 46 ± 14 ng/mL | C Max (mean +/− SD, N = 9) ([4]; 100 mg once daily): 427 ± 76 ng/mL | C Trough (Mean +/− SD, N = 9) ([4]; 100 mg once daily): 100 ± 25 ng/mL | exposure at maximum administrated dose above expected therapeutic exposure level ([4]; 200 mg): 5 × | exposure based on Cmax vs expected therapeutic range ([4]; 200 mg, group): ≤ 5 × | exposure based on Cmax vs expected therapeutic range ([4]; 200 mg, individual with the highest exposure): more than 7 × | C Trough (Mean +/− SD, N = 9) ([4]; 300 mg once daily): 186 ± 45 ng/mL | severe or serious adverse events ([4]; 50, 100 or 200 mg once daily, 14 days): No severe AEs nor serious AEs were reported | steady state achieved ([4]; Cohort 1, 50 mg once daily): 7 days | peak increase compared to cohort 1 ([4]; Cohort 2, 100 mg vs 50 mg): approximately 2 fold | subjects with isolated increases in aminotransferases ([4]; Cohort 3 (200 mg), treated with active): 3 subjects | time Cmax was reached post dosing ([4]; Cohort 3, 200 mg once daily): 1 to 2 h | safety profile ([4]; for 50 mg or 100 mg doses for four weeks): good safety profile | TEAEs considered possibly related to the study treatment ([4]; gastrointestinal, 50 mg and 200 mg dose levels): 4 events | QTcF, repeated standard 12 lead safety ECG ([4]; in vivo): No individual QTcF clinically significant values were observed | Vd/F (clinical [5]; oral): 556 to 784 L | half-life (clinical [5]; oral): ~20 h | Tmax (clinical [5]; po): 1 to 4 h | ERK1/2 phosphorylation (MC3R): cause ERK1/2 phosphorylation | canonical cAMP generation (MC3R): does not induce canonical cAMP generation | reduction in albumin excretion rate ([6]; 10 mg/kg ip once daily from day 14, day 28): 31±8% | reduction in albumin excretion rate ([6]; 10 mg/kg ip once daily from day 14, day 42): 48±10% | FEAlb (fractional albumin excretion) reduced by ([6]; day 28): 48±5% | FEAlb (fractional albumin excretion) reduced by ([6]; day 42): 45±11% | proteinuria compared to control rats (vehicle) [6]: significantly reduces proteinuria | proteinuria compared to control rats (vehicle) ([6]; listed as test compound 1): significant reduction in proteinuria | reduction in albumin excretion rate ([6]; day 482 as printed in FIG. 1 legend): 48±10% | melanogenesis (melanocytes): no melanogenesis was induced | macroscopic and histological parameters of joint disruption [7]: significant reduction of macroscopic and histological parameters of joint disruption | absorption with a glass of apple juice immediately after dosing [8]: does not reduce the absorption | plasma profile, first meal 1 hour or 4 hours post-dosing ([8]; dosing in the fasting state): very similar | CYP1A2 induction (CYP1A2): signal for CYP1A2 induction has been observed | ERK1/2 phosphorylation (MC1R): cause ERK1/2 phosphorylation | canonical cAMP generation (MC1R): does not induce canonical cAMP generation | anti-inflammatory actions in peritonitis (peritonitis): elicits anti-inflammatory actions in peritonitis and accelerated the resolution phase | cytokine release (macrophages): reduce cytokine release
